Source: ChEMBL document CHEMBL1201862, “PubChem BioAssay data set” (2004)
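Where inhibition never reached the appropriate level, the endpoint shown equals the highest concentration tested. Otherwise, values were interpolated linearly from a five-concentration, 48-hour dose response in 96-well plates. GI50 marks 50% less growth.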 Activity calls are given as the source filed them. Rule as the data show it: active = GI50 up to about 1.1 µM and inactive = higher.

Assays:
Assay in all cases: DTP human tumour cell line panel, 48 h
RPMI-8226 = tested on: RPMI-8226
A498 = tested on: A498
SNB-19 = tested on: SNB-19
HOP-62 = tested on: HOP-62
HT-29 = tested on: HT-29
SK-MEL-2 = tested on: SK-MEL-2
DU-145 = tested on: DU-145
MCF7 = tested on: MCF7
SF-539 = tested on: SF-539
OVCAR-8 = tested on: OVCAR-8
SF-268 = tested on: SF-268
HCT-116 = tested on: HCT-116
MDA-MB-435 = tested on: MDA-MB-435
MDA-N = tested on: MDA-N
TK-10 = tested on: TK-10
Hs-578T = tested on: Hs-578T
IGROV-1 = tested on: IGROV-1
SK-MEL-28 = tested on: SK-MEL-28
NCI-H226 = tested on: NCI-H226
LOX IMVI = tested on: LOX IMVI

SMILES	GI50 (RPMI-8226)	GI50 (A498)	GI50 (SNB-19)	GI50 (HOP-62)	GI50 (HT-29)	GI50 (SK-MEL-2)	GI50 (DU-145)	GI50 (MCF7)	GI50 (SF-539)	GI50 (OVCAR-8)	GI50 (SF-268)	GI50 (HCT-116)	GI50 (MDA-MB-435)	GI50 (MDA-N)	GI50 (TK-10)	GI50 (Hs-578T)	GI50 (IGROV-1)	GI50 (SK-MEL-28)	GI50 (NCI-H226)	GI50 (LOX IMVI)
CC(C)(C)CC(C)(C)NC(=S)NO	> 100 µM (inactive)	> 100 µM (inactive)	> 100 µM (inactive)	> 100 µM (inactive)	> 100 µM (inactive)	> 100 µM (inactive)	> 100 µM (inactive)	> 100 µM (inactive)	> 100 µM (inactive)	> 100 µM (inactive)	> 100 µM (inactive)	> 100 µM (inactive)	> 100 µM (inactive)	> 100 µM (inactive)	> 100 µM (inactive)	> 100 µM (inactive)	> 100 µM (inactive)	> 100 µM (inactive)	> 100 µM (inactive)	> 100 µM (inactive)
O=C(/C=C/C(Cl)(Cl)Cl)Nc1ccc(Cl)cc1	2.09 µM (inactive)	13.9 µM (inactive)	17.7 µM (inactive)	4.94 µM (inactive)	1.94 µM (inactive)	8.59 µM (inactive)	16.9 µM (inactive)	17.5 µM (inactive)	1.99 µM (inactive)	14.9 µM (inactive)	3.23 µM (inactive)	4.73 µM (inactive)	3.74 µM (inactive)	3.44 µM (inactive)	2.35 µM (inactive)	25.4 µM (inactive)	0.452 µM (active)	18.3 µM (inactive)	15.1 µM (inactive)	0.8 µM (active)
N=C(N)N/N=C/c1ccc(O)c(C(=O)O)c1	> 100 µM (inactive)	> 100 µM (inactive)	> 100 µM (inactive)	> 100 µM (inactive)	32.3 µM (inactive)	> 100 µM (inactive)	> 100 µM (inactive)	> 100 µM (inactive)	> 100 µM (inactive)	> 100 µM (inactive)	> 100 µM (inactive)	> 100 µM (inactive)	> 100 µM (inactive)	> 100 µM (inactive)	> 100 µM (inactive)	> 100 µM (inactive)	> 100 µM (inactive)	> 100 µM (inactive)	> 100 µM (inactive)	> 100 µM (inactive)
COc1cc(C(=O)O[C@@H]2[C@@H](OC(=O)c3cc(OC)c(OC)c(OC)c3)[C@@H](OC)O[C@@H]3CO[C@@H](c4ccccc4)O[C@@H]23)cc(OC)c1OC	> 100 µM (inactive)	> 100 µM (inactive)	> 100 µM (inactive)	> 100 µM (inactive)	> 100 µM (inactive)	> 100 µM (inactive)	> 100 µM (inactive)	> 100 µM (inactive)	> 100 µM (inactive)	> 100 µM (inactive)	> 100 µM (inactive)	> 100 µM (inactive)	> 100 µM (inactive)	> 100 µM (inactive)	> 100 µM (inactive)	> 100 µM (inactive)	> 100 µM (inactive)	> 100 µM (inactive)	> 100 µM (inactive)	> 100 µM (inactive)
C=C1C(=O)OC2/C=C(/C)C(OC(C)=O)CC(O)/C(C)=C\C(OC(=O)/C(C)=C\C)C12 (stereo not given)	38.7 µM (inactive)	> 100 µM (inactive)	> 100 µM (inactive)	> 100 µM (inactive)	66.1 µM (inactive)	> 100 µM (inactive)	53.8 µM (inactive)	34 µM (inactive)	> 100 µM (inactive)	35.3 µM (inactive)	> 100 µM (inactive)	18.2 µM (inactive)	81.8 µM (inactive)	48.1 µM (inactive)	> 100 µM (inactive)	> 100 µM (inactive)	> 100 µM (inactive)	43.2 µM (inactive)	> 100 µM (inactive)	28.5 µM (inactive)
Cc1cc(N2CCOCC2)nc2ccc(Cc3ccc4nc(N5CCOCC5)cc(C)c4c3)cc12	20.2 µM (inactive)	59.4 µM (inactive)	49.9 µM (inactive)	> 100 µM (inactive)	18.7 µM (inactive)	63.5 µM (inactive)	> 100 µM (inactive)	37.8 µM (inactive)	24.2 µM (inactive)	57.5 µM (inactive)	> 100 µM (inactive)	21.9 µM (inactive)	43.3 µM (inactive)	36.6 µM (inactive)	29.4 µM (inactive)	> 100 µM (inactive)	> 100 µM (inactive)	39.4 µM (inactive)	33.3 µM (inactive)	32.4 µM (inactive)
COC1=C(C)C(=O)C2=C(C1=O)C1C3CC4=C(C(=O)C(OC)=C(C)C4=O)C(CNC(=O)C(C)O)N3C(C#N)C(C2)N1C (stereo not given)	< 0.01 µM (active)	0.0107 µM (active)	< 0.01 µM (active)	0.0149 µM (active)	< 0.01 µM (active)	< 0.01 µM (active)	0.016 µM (active)	< 0.01 µM (active)	< 0.01 µM (active)	< 0.01 µM (active)	< 0.01 µM (active)	0.0465 µM (active)	< 0.01 µM (active)	< 0.01 µM (active)	0.0353 µM (active)	< 0.01 µM (active)	< 0.01 µM (active)	< 0.01 µM (active)	0.0212 µM (active)	< 0.01 µM (active)
CC(NNC(=O)c1cc[n+]([BH2-]C#N)cc1)c1cccc(C(F)(F)F)c1 (stereo not given)	65.2 µM (inactive)	> 100 µM (inactive)	> 100 µM (inactive)	> 100 µM (inactive)	82.2 µM (inactive)	> 100 µM (inactive)	> 100 µM (inactive)	56.2 µM (inactive)	> 100 µM (inactive)	> 100 µM (inactive)	> 100 µM (inactive)	82 µM (inactive)	> 100 µM (inactive)	81.3 µM (inactive)	> 100 µM (inactive)	64.4 µM (inactive)	> 100 µM (inactive)	> 100 µM (inactive)	> 100 µM (inactive)	71.6 µM (inactive)
CC(C)/C=N\N1C(N)=C(C#N)C(C#N)(C#N)C1C(C)C (stereo not given)	37.8 µM (inactive)	51.3 µM (inactive)	> 100 µM (inactive)	55.7 µM (inactive)	27.5 µM (inactive)	67.3 µM (inactive)	40 µM (inactive)	55.5 µM (inactive)	22.7 µM (inactive)	25.1 µM (inactive)	56.6 µM (inactive)	47.9 µM (inactive)	23.4 µM (inactive)	22.4 µM (inactive)	> 100 µM (inactive)	88.5 µM (inactive)	39.9 µM (inactive)	47 µM (inactive)	55.6 µM (inactive)	31.8 µM (inactive)
CC1OC2(CC(OCc3ccccc3)C1OCc1ccccc1)OCCO2 (stereo not given)	35.2 µM (inactive)	12.8 µM (inactive)	44.3 µM (inactive)	> 100 µM (inactive)	20.9 µM (inactive)	78.5 µM (inactive)	88.5 µM (inactive)	66.2 µM (inactive)	> 100 µM (inactive)	> 100 µM (inactive)	60.1 µM (inactive)	45.9 µM (inactive)	57 µM (inactive)	55.1 µM (inactive)	> 100 µM (inactive)	17.4 µM (inactive)	> 100 µM (inactive)	> 100 µM (inactive)	82.6 µM (inactive)	33.6 µM (inactive)
CC1C(c2ccc3c(c2)OCO3)c2cc3c(cc2OC1N1CCOCC1)OCO3 (stereo not given)	21 µM (inactive)	22.4 µM (inactive)	16.4 µM (inactive)	34.4 µM (inactive)	28.7 µM (inactive)	19.9 µM (inactive)	27.8 µM (inactive)	20.8 µM (inactive)	18.3 µM (inactive)	32.5 µM (inactive)	31.3 µM (inactive)	16 µM (inactive)	5.6 µM (inactive)	6.28 µM (inactive)	29.1 µM (inactive)	14.1 µM (inactive)	28 µM (inactive)	23.7 µM (inactive)	22 µM (inactive)	20.9 µM (inactive)
O=C1c2ccccc2CC12Cc1ccccc1C2	31.7 µM (inactive)	> 100 µM (inactive)	> 100 µM (inactive)	83.9 µM (inactive)	23.4 µM (inactive)	45.3 µM (inactive)	86.3 µM (inactive)	53.5 µM (inactive)	> 100 µM (inactive)	80.4 µM (inactive)	48 µM (inactive)	44.1 µM (inactive)	55 µM (inactive)	56.4 µM (inactive)	21.9 µM (inactive)	52.2 µM (inactive)	87.5 µM (inactive)	> 100 µM (inactive)	> 100 µM (inactive)	35.8 µM (inactive)
CC(Cn1c(=O)oc2ccccc21)N(C)C (stereo not given)	> 100 µM (inactive)	> 100 µM (inactive)	> 100 µM (inactive)	> 100 µM (inactive)	> 100 µM (inactive)	> 100 µM (inactive)	> 100 µM (inactive)	> 100 µM (inactive)	> 100 µM (inactive)	> 100 µM (inactive)	> 100 µM (inactive)	> 100 µM (inactive)	> 100 µM (inactive)	> 100 µM (inactive)	> 100 µM (inactive)	> 100 µM (inactive)	> 100 µM (inactive)	> 100 µM (inactive)	> 100 µM (inactive)	> 100 µM (inactive)
CC(C)CCCC(C)[C@H]1CCC2[C@@H]3CCC4Cc5nc6c(nc5C[C@]4(C)C3CC[C@@]21C)CC1CC[C@@H]2C(CC[C@@]3(C)C2CC[C@@H]3O)[C@@]1(C)C6 (stereo not given in full)	> 100 µM (inactive)	> 100 µM (inactive)	> 100 µM (inactive)	> 100 µM (inactive)	> 100 µM (inactive)	> 100 µM (inactive)	> 100 µM (inactive)	> 100 µM (inactive)	> 100 µM (inactive)	> 100 µM (inactive)	> 100 µM (inactive)	> 100 µM (inactive)	> 100 µM (inactive)	> 100 µM (inactive)	> 100 µM (inactive)	> 100 µM (inactive)	> 100 µM (inactive)	> 100 µM (inactive)	> 100 µM (inactive)	> 100 µM (inactive)
